The text below walks through data of patent US9233982B2, “Spiro tetrahydro—benzothiophen derivatives useful for the treatment neurodegenerative diseases” (Ares Trading S.A., priority 2012, dated 2016).

Each structure is given as a SMILES string. Counter-ions that a name gives are not always drawn.

Experiment [1] has as its target T1, BACE-1 (Homo sapiens, UniProt P56817). Nature of the experiment: LanthaScreen BACE1 biochemical assay (TR-FRET).
Description: Biochemical Assay to Assess Compounds for Inhibition of BACE-1
The LanthaScreen™ BACE1 assay kit from Invitrogen (Catalogue number PV4748) was used as the primary assay in the screening cascade.
Briefly, the test compound was incubated with the enzyme and substrate for 1 hour at room temperature in a reaction volume of 15 μl and then 5 nM terbium labelled anti-biotin antibody was added to stop the reaction and the solution incubated for a further 1 hour at room temperature. The microplate was read on an Envision plate reader fitted with a photometric 340 nm excitation filter and the amount of substrate that had been cleaved was represented by the TR-FRET ratio, calculated by dividing the Fluorescein emission signal (520 nm) by the Terbium emission signal (495 nm).
Experiment [2] has as its target T1, BACE-1. Put plainly: HTRF cell based assay, Aβ1-40 peptide secreted by recombinant HEK293 cells. The following applies: for EC50: Aβ1-40 secretion, recombinant HEK293 cells producing APP, overnight treatment, read-out: Cellular assay EC50 Ranges. Also noted: endogenous in cells; host or cells: recombinant HEK293 cells engineered to over-produce APP. The procedure:
The cell based assay used to support the program utilized HTRF assay reagents from Cisbio (Catalogue number 62B40PEB) to quantify the amount of Aβ1-40 peptide secreted by recombinant HEK293 cells. The cells were engineered to produce high quantities of APP, the precursor for Aβ1-40 peptide, under hygromycin selection pressure. Briefly, cells were plated into 384-well microplates and allowed to settle for 2 hours prior to compound addition. Following overnight treatment with compound, the media containing secreted peptide was transferred into a low volume assay plate for quantification with HTRF immunoassay reagents. Adhering to the manufacturers protocol for quantification, a TR-FRET signal is obtained in the presence of the Aβ1-40 peptide following addition of a cryptate conjugated antibody and an XL665 conjugated antibody, each raised to a different epitope of the Aβ1-40 peptide. A low FRET signal is obtained when cells are treated with compounds that inhibit APP cleavage and peptide secretion.
A general note: TR-FRET usually uses a lanthanide donor and a delayed reading to cut background.

T1 sequence (P56817 46-501): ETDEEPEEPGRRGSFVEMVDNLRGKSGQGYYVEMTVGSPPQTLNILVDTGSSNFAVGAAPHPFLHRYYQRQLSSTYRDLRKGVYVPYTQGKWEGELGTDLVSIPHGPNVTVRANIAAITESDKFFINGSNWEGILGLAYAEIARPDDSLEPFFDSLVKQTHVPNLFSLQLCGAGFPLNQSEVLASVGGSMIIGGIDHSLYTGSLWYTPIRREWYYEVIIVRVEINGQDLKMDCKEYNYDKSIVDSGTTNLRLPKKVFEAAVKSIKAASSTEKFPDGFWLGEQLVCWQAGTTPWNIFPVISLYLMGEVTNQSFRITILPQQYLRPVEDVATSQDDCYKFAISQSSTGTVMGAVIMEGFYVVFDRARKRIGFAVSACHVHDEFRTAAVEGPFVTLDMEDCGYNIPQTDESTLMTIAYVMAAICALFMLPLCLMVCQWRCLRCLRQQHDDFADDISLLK

As a reminder, the IC50 is the concentration at which inhibition is half-maximal. As usually defined, the EC50 is the concentration giving half of the maximal effect. On BACE-1 [1], `NC1=NC2(CCS1)CC(c1ccccc1)Cc1sc(-c3cccc(Br)c3)cc12` (racemic) [Example 43] came in with an IC50 of 5 to 65 µM. Also, at BACE-1 [2], the EC50 was 5 to 50 µM. On to `COc1ccc(-c2cccc(-c3cc4c(s3)CC(c3ccccc3)CC43CCSC(N)=N3)c2)cc1` (racemic) [Example 44], for which the IC50 against BACE-1 [1] was in the range of 1 to 5 µM. Moreover, at BACE-1 [2], the EC50 fell in the range of 5 to 50 µM. On BACE-1 [1], `COCC1Cc2sc(-c3cccc(C#N)c3)cc2C2(CCSC(N)=N2)C1` (racemic) [Example 45, 3-(2′-amino-6-(methoxymethyl)-5′,6,6′,7-tetrahydro-5H-spiro[benzo[b]thiophene-4,4′-[1,3]thiazine]-2-yl)benzonitrile, Hydrochloride Salt] came in with an IC50 of 5 to 65 µM. Besides, the EC50 at BACE-1 [2] was 1 to 5 µM. For `N#Cc1cccc(-c2cc3c(s2)CCC(Cc2ccccc2)C32CCSC(N)=N2)c1` (racemic) [Example 47, 3-(2′-amino-5-benzyl-5′,6,6′,7-tetrahydro-5H-spiro[benzo[b]thiophene-4,4′-[1,3]thiazine]-2-yl)benzonitrile] the same measures were 5 to 65 µM and 1 to 5 µM. Turning to `COc1ccc(CC2CCc3sc(-c4cccc(C#N)c4)cc3C23CCSC(N)=N3)cc1` (racemic) [Example 48], the IC50 at BACE-1 [1] lay in the range of 1 to 5 µM. For the same compound, the EC50 on BACE-1 [2] lay in the range of 5 to 50 µM. At BACE-1 [1], `CN1C(=O)[C@]2(CCCc3sc(-c4cccc(C#N)c4)cc32)N=C1N` (single isomer, unassigned) [Example 50] came in with an IC50 of 5 to 65 µM. Further, at BACE-1 [2], the EC50 lay in the range of 1 to 5 µM.

Take `CN1C(=O)[C@@]2(CCCc3sc(-c4cccc(C#N)c4)cc32)N=C1N` (single isomer, unassigned) [Example 51]: at BACE-1 [1], the IC50 was under 1 µM. The EC50 at BACE-1 [2] is at most 1 µM. Taken in the same sequence, the figures for `N#Cc1cccc(-c2cc3c(s2)CCCC32CCSC(N)=N2)c1` (stereo in doubt) [Example 2, (R)-3-(2′-amino-5′,6,6′,7-tetrahydro-5H-spiro[benzo[b]thiophene-4,4′-[1,3]thiazine]-2-yl)benzonitrile] were under 1 µM and at most 1 µM. For `N#Cc1cccc(-c2cc3c(s2)CCCC32CCSC(N)=N2)c1` (stereo not drawn) [Example 1, 3-(2′-amino-5′,6,6′,7-tetrahydro-5H-spiro[benzo[b]thiophene-4,4′-[1,3]thiazine]-2-yl)benzonitrile, Formate Salt] the same measures were 1 to 5 µM and at most 1 µM.

Take `NC1=NC2(CCCc3sc(-c4ccc(F)cc4)cc32)CCS1` (stereo not drawn) [Example 3]: the IC50 against BACE-1 [1] was in the range of 5 to 65 µM. In addition, the EC50 at BACE-1 [2] fell in the range of 5 to 50 µM. For `NC1=NC2(CCCc3sc(-c4cccnc4)cc32)CCS1` (stereo not drawn) [Example 4] the same measures were 5 to 65 µM and 5 to 50 µM. For `COc1ccc(-c2cc3c(s2)CCCC32CCSC(N)=N2)cn1` (stereo not drawn) [Example 5] the same measures were 5 to 65 µM and 5 to 50 µM. For `NC1=NC2(CCCc3sc(-c4ccc5c(c4)CCO5)cc32)CCS1` (stereo not drawn) [Example 6] the same measures were 5 to 65 µM and 5 to 50 µM.

In the case of `NC1=NC2(CCCc3sc(-c4cncnc4)cc32)CCS1` (stereo not drawn) [Example 7], on BACE-1 [1], the IC50 fell in the range of 5 to 65 µM. Moreover, the EC50 at BACE-1 [2] is 5 to 50 µM.

In the case of `NC1=NC2(CCCc3sc(-c4ccc5c(c4)OCO5)cc32)CCS1` (stereo not drawn) [Example 8], on BACE-1 [1], the IC50 lay within 5 to 65 µM. Moreover, at BACE-1 [2], the EC50 fell in the range of 5 to 50 µM.

On BACE-1 [1], `CS(=O)(=O)c1cccc(-c2cc3c(s2)CCCC32CCSC(N)=N2)c1` (stereo not drawn) [Example 9] came in with an IC50 of 5 to 65 µM. Moreover, the EC50 at BACE-1 [2] lay within 1 to 5 µM. Taken in the same sequence, the figures for `COc1ccc(C#N)cc1-c1cc2c(s1)CCCC21CCSC(N)=N1` (stereo not drawn) [Example 10] were 1 to 5 µM and at most 1 µM. Taken in the same sequence, the figures for `COc1cc(C#N)cc(-c2cc3c(s2)CCCC32CCSC(N)=N2)c1F` (stereo not drawn) [Example 11] were 5 to 65 µM and 1 to 5 µM. Taken in the same sequence, the figures for `N#Cc1cc(F)cc(-c2cc3c(s2)CCCC32CCSC(N)=N2)c1` (stereo not drawn) [Example 12] were 5 to 65 µM and 1 to 5 µM.

On to `COC(=O)c1cccc(-c2cc3c(s2)CCCC32CCSC(N)=N2)c1` (stereo not drawn) [Example 13], for which the IC50 at BACE-1 [1] is 5 to 65 µM. On BACE-1 [2], the EC50 lay in the range of 5 to 50 µM.

`N#Cc1cc(-c2cc3c(s2)CCCC32CCSC(N)=N2)ccc1F` (stereo not drawn) [Example 14] displayed an IC50 at BACE-1 [1] of 1 to 5 µM. The EC50 at BACE-1 [2] lay within 1 to 5 µM. Turning to `N#Cc1ccc(F)c(-c2cc3c(s2)CCCC32CCSC(N)=N2)c1` (stereo not drawn) [Example 15], the IC50 against BACE-1 [1] is 1 to 5 µM. At BACE-1 [2], the EC50 was at most 1 µM. For `N#Cc1ccc(Cl)c(-c2cc3c(s2)CCCC32CCSC(N)=N2)c1` (stereo not drawn) [Example 16] the same measures were 1 to 5 µM and at most 1 µM.

Take `COc1cc(C#N)cc(-c2cc3c(s2)CCCC32CCSC(N)=N2)c1` (stereo not drawn) [Example 17]: the IC50 at BACE-1 [1] fell in the range of 1 to 5 µM. Moreover, on BACE-1 [2], the EC50 lay in the range of 1 to 5 µM. `COc1ncc(-c2cc3c(s2)CCCC32CCSC(N)=N2)cc1C#N` (stereo not drawn) [Example 18] registered an IC50 on BACE-1 [1] of 5 to 65 µM. Besides, the EC50 at BACE-1 [2] is 1 to 5 µM. Taken in the same sequence, the figures for `N#Cc1cncc(-c2cc3c(s2)CCCC32CCSC(N)=N2)c1` (stereo not drawn) [Example 19] were 5 to 65 µM and 1 to 5 µM. For `N#Cc1cc(-c2cc3c(s2)CCCC32CCSC(N)=N2)ccn1` (stereo not drawn) [Example 20] the same measures were 5 to 65 µM and 1 to 5 µM. Taken in the same sequence, the figures for `NC1=NC2(CCCc3sc(-c4cccc(-c5ccccc5)c4)cc32)CCS1` (stereo not drawn) [Example 21] were 1 to 5 µM and 5 to 50 µM. The compound `COc1ccc(-c2cc3c(s2)CCCC32CCSC(N)=N2)cc1C#N` (stereo not drawn) [Example 22] registered an IC50 against BACE-1 [1] of 5 to 65 µM. Besides, the EC50 on BACE-1 [2] was 1 to 5 µM. Taken in the same sequence, the figures for `COCc1cccc(-c2cc3c(s2)CCCC32CCSC(N)=N2)c1` (stereo not drawn) [Example 23] were 5 to 65 µM and 1 to 5 µM. For `NC1=NC2(CCCc3sc(-c4cccc(OC(F)(F)F)c4)cc32)CCS1` (stereo not drawn) [Example 24] the same measures were 1 to 5 µM and 5 to 50 µM.

At BACE-1 [1], `NC1=NC2(CCCc3sc(-c4cccc(C(F)(F)F)c4)cc32)CCS1` (stereo not drawn) [Example 25] gave an IC50 of 1 to 5 µM. The EC50 at BACE-1 [2] is 5 to 50 µM. For `NC1=NC2(CCCc3sc(-c4cccc(Oc5ccccc5)c4)cc32)CCS1` (stereo not drawn) [Example 26] the same measures were 1 to 5 µM and 5 to 50 µM. Taken in the same sequence, the figures for `CC(C)c1cccc(-c2cc3c(s2)CCCC32CCSC(N)=N2)c1` (stereo not drawn) [Example 27] were 1 to 5 µM and 5 to 50 µM. `NC1=NC2(CCCc3sc(-c4cccc(Cl)c4)cc32)CCS1` (stereo not drawn) [Example 28] showed an IC50 against BACE-1 [1] of 1 to 5 µM. Besides, the EC50 on BACE-1 [2] was 5 to 50 µM.

`NC1=NC2(CCCc3sc(-c4ccc(-c5ccccc5)cc4)cc32)CCS1` (stereo not drawn) [Example 29] had an IC50 on BACE-1 [1] of 1 to 5 µM. Also, the EC50 on BACE-1 [2] lay within 5 to 50 µM. The compound `NC1=NC2(CCCc3sc(-c4cccc(OCc5ccccc5)c4)cc32)CCS1` (stereo not drawn) [Example 30] showed an IC50 at BACE-1 [1] of 1 to 5 µM. The EC50 on BACE-1 [2] lay within 5 to 50 µM. On BACE-1 [1], `N#Cc1cccc(-c2cc3c(s2)CCCC32CCSC(N)=N2)n1` (stereo not drawn) [Example 31] came in with an IC50 of 1 to 5 µM. The EC50 on BACE-1 [2] was in the range of 1 to 5 µM. Compound `N#Cc1cc(-c2cc3c(s2)CCCC32CCSC(N)=N2)cc(C(F)(F)F)c1` (stereo not drawn) [Example 32] registered an IC50 against BACE-1 [1] of 1 to 5 µM. Besides, the EC50 at BACE-1 [2] was in the range of 5 to 50 µM. For `COc1ccc(-c2cccc(-c3cc4c(s3)CCCC43CCSC(N)=N3)c2)cc1` (stereo not drawn) [Example 33] the same measures were 1 to 5 µM and 5 to 50 µM. For `N#Cc1cc(Cl)cc(-c2cc3c(s2)CCCC32CCSC(N)=N2)c1` (stereo not drawn) [Example 34] the same measures were 1 to 5 µM and 1 to 5 µM. For `Cc1cc(C#N)cc(-c2cc3c(s2)CCCC32CCSC(N)=N2)c1` (stereo not drawn) [Example 35] the same measures were 1 to 5 µM and 1 to 5 µM.

`NC1=NC2(CCCc3sc(-c4cccc(-c5ccccn5)c4)cc32)CCS1` (stereo not drawn) [Example 36]: the IC50 against BACE-1 [1] is 5 to 65 µM. The EC50 at BACE-1 [2] lay in the range of 5 to 50 µM.

`CC(C)(C)c1cccc(-c2cc3c(s2)CCCC32CCSC(N)=N2)c1` (stereo not drawn) [Example 37]: the IC50 at BACE-1 [1] lay in the range of 5 to 65 µM. At BACE-1 [2], the EC50 fell in the range of 5 to 50 µM. At BACE-1 [1], `COc1cccc(-c2cccc(-c3cc4c(s3)CCCC43CCSC(N)=N3)c2)c1` (stereo not drawn) [Example 38] displayed an IC50 of 1 to 5 µM. Moreover, on BACE-1 [2], the EC50 was 5 to 50 µM. Taken in the same sequence, the figures for `NC1=NC2(CCCc3sc(-c4cccc(CC(F)(F)F)c4)cc32)CCS1` (stereo not drawn) [Example 39] were 5 to 65 µM and 5 to 50 µM. For `NC1=NC2(CCCc3sc(NC(=O)c4ccc(Br)cn4)cc32)CCS1` (stereo not drawn) [Example 40] the same measures were 5 to 65 µM and 5 to 50 µM. For `COc1cccc(-c2cccc(-c3cc4c(s3)CC(C)(C)CC43CCSC(N)=N3)c2)c1` (stereo not drawn) [Example 41, 2-(3′-methoxybiphenyl-3-yl)-6,6-dimethyl-5′,6,6′,7-tetrahydro-5H-spiro[benzo[b]thiophene-4,4′-[1,3]thiazin]-2′-amine, Formate Salt] the same measures were 1 to 5 µM and 5 to 50 µM.

Compound `COc1ccc(-c2cccc(-c3cc4c(s3)CC(C)(C)CC43CCSC(N)=N3)c2)cc1` (stereo not drawn) [Example 42] had an IC50 on BACE-1 [1] of 1 to 5 µM. Also, the EC50 at BACE-1 [2] was 5 to 50 µM. Take `C[C@H](NC(=O)Cc1cc(F)cc(F)c1)C(=O)N[C@@H]1C(=O)N(C)c2ccccc2-c2ccccc21` [reference compound]: the IC50 at BACE-1 [2] (reference inhibitor, inhibition of Aβ1-40 peptide secretion, 30,000 cells per well) was found to be 0.0002 µM.
